This is an account of results in patent publication US8519149B2, “Tricyclic compounds as mPGES-1 inhibitors” (Glenmark Pharmaceuticals S.A., priority 2010, dated 2013).

For the test, the target named is T1, Recombinant human mPGES-1 (Homo sapiens, UniProt O14684).
T1 sequence (O14684 1-152): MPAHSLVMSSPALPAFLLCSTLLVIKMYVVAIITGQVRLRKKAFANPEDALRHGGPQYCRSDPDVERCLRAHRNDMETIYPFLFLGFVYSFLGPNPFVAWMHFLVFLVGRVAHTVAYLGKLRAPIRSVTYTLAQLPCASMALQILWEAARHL
Nature of the test: In-vitro mPGES-1 enzyme inhibition assay (PGE2 formation from PGH2, HTRF detection). The test is classed as biochemical. To be noted: for inhibition at 1 µM: 1 μM test compound, read-out: Percentage inhibition at 1 μM; for inhibition at 1 µM / inhibition at 10 µM: recombinant human mPGES-1 microsomal fraction; for inhibition at 10 µM: 10 μM test compound, read-out: Percentage inhibition at 10 μM; for IC50: class symbols, selected examples. In short, it runs like this: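 Crude microsomal fractions containing recombinant human mPGES-1 (40-60 μg/mL protein) convert PGH2 to PGE2 in the presence of reduced glutathione, with 0.5% final DMSO. Reaction stopped with stannous chloride, and PGE2 measured by anti-PGE2 antibody (HTRF) detection. IC50 by nonlinear regression of % inhibition versus uninhibited enzyme control.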
In general terms: In TR-FRET formats the signal depends on donor and acceptor labels being close together.

Where only a bound is given, the exact number is not on record here.

With `CC1(C)Cc2c(c(C(=O)Nc3ccc(C(F)(F)F)cn3)cc3nc(Nc4c(F)cccc4Cl)[nH]c23)O1` [Example-122, 2-[(2-Chloro-6-fluorophenyl)amino]-7,7-dimethyl-N-[5-(trifluoromethyl)pyridin-2-yl]-7,8-dihydro-1H-furo[3,2-e]benzimidazole-5-carboxamide], the inhibition (as a rule, the change of the read-out against control, counted positive when it falls) at 1 µM was 96%; the inhibition at 10 µM turned out to be 98.1%; the IC50 (usually the concentration that inhibits the measured activity by half) is below 50 nM.

With `Cc1ccc(Cl)c(Nc2nc3cc(C(=O)Nc4cccc(C(F)(F)F)c4)c4c(c3[nH]2)CC(C)(C)O4)c1` [Example-123, 2-[(2-Chloro-5-methylphenyl)amino]-7,7-dimethyl-N-[3-(trifluoromethyl)phenyl]-7,8-dihydro-1H-furo[3,2-e]benzimidazole-5-carboxamide], the inhibition at 1 µM was found to be 91.1%, the inhibition at 10 µM turned out to be 98.9% and the IC50 is below 50 nM.

As to `Cc1cccc(Cl)c1Nc1nc2cc(C(=O)Nc3ccc(C(F)(F)F)cn3)c3c(c2[nH]1)CC(C)(C)O3` [Example-124, 2-[(2-Chloro-6-methylphenyl)amino]-7,7-dimethyl-N-[5-(trifluoromethyl)pyridin-2-yl]-7,8-dihydro-1H-furo[3,2-e]benzimidazole-5-carboxamide], the inhibition at 1 µM was 97.1%, the inhibition at 10 µM was 100% and the IC50 was below 50 nM.

For `CC1(C)Cc2c(c(C(=O)Nc3ccc(OCC4CC4)nc3)cc3nc(Nc4c(F)cccc4Cl)[nH]c23)O1` [Example-125, 2-[(2-Chloro-6-fluorophenyl)amino]-N-[6-(cyclopropylmethoxy)pyridin-3-yl]-7,7-dimethyl-7,8-dihydro-1H-furo[3,2-e]benzimidazole-5-carboxamide], the inhibition at 1 µM amounted to 10.6% and the inhibition at 10 µM was 76.7%.

For `CC1(C)Cc2c(c(C(=O)Nc3ncc(Cl)cc3F)cc3nc(Nc4c(F)cccc4Cl)[nH]c23)O1` [Example-126, N-(5-Chloro-3-fluoropyridin-2-yl)-2-((2-chloro-6-fluorophenyl)amino)-7,7-dimethyl-7,8-dihydro-1H-benzofuro[4,5-d]imidazole-5-carboxamide], the inhibition at 1 µM stood at 96.6%, the inhibition at 10 µM is 97.7% and the IC50 was below 50 nM.

In the case of `CC1(C)Cc2c(c(C(=O)NC3(c4cccc(C(F)(F)F)c4)CC3)cc3nc(Nc4c(F)cccc4Cl)[nH]c23)O1` [Example-127, 2-((2-Chloro-6-fluorophenyl)amino)-7,7-dimethyl-N-(1-(3-(trifluoromethyl)phenyl)cyclopropyl)-7,8-dihydro-1H-benzofuro[4,5-d]imidazole-5-carboxamide], the inhibition at 1 µM turned out to be 94.7%, the inhibition at 10 µM was 99% and the IC50 was below 50 nM.

Turning to `Cc1ccc(NC(=O)c2cc3nc(Nc4c(F)cccc4Cl)[nH]c3c3c2OC(C)(C)C3)c(F)c1` [Example-128, 2-((2-Chloro-6-fluorophenyl)amino)-N-(2-fluoro-4-methylphenyl)-7,7-dimethyl-7,8-dihydro-1H-benzofuro[4,5-d]imidazole-5-carboxamide], the inhibition at 1 µM was determined as 90.5%, the inhibition at 10 µM was found to be 94% and the IC50 is below 50 nM.

For the compound `CC1(C)Cc2c(c(C(=O)NCc3ccc(F)cc3C(F)(F)F)cc3nc(Nc4c(F)cccc4Cl)[nH]c23)O1` [Example-129, 2-((2-Chloro-6-fluorophenyl)amino)-N-(4-fluoro-2-(trifluoromethyl)benzyl)-7,7-dimethyl-7,8-dihydro-1H-benzofuro[4,5-d]imidazole-5-carboxamide], the inhibition at 1 µM came out at 88.3%, the inhibition at 10 µM came to 97.1% and the IC50 was below 50 nM.

With `Cc1cccc(Cl)c1Nc1nc2cc(C(=O)NCc3ccc(F)cc3C(F)(F)F)c3c(c2[nH]1)CC(C)(C)O3` [Example-130, 2-((2-Chloro-6-methylphenyl)amino)-N-(4-fluoro-2-(trifluoromethyl)benzyl)-7,7-dimethyl-7,8-dihydro-1H-benzofuro[4,5-d]imidazole-5-carboxamide], the inhibition at 1 µM is 74.6% and the inhibition at 10 µM came out at 96.8%.

For `CC1(C)Cc2c(c(C(=O)Nc3cc(C(F)F)ccc3F)cc3nc(Nc4c(F)cccc4Cl)[nH]c23)O1` [Example-131, 2-((2-Chloro-6-fluorophenyl)amino)-N-(5-(difluoromethyl)-2-fluorophenyl)-7,7-dimethyl-7,8-dihydro-1H-benzofuro[4,5-d]imidazole-5-carboxamide], the inhibition at 1 µM worked out at 96.9%, the inhibition at 10 µM came out at 98.1% and the IC50 is below 50 nM.

Consider `Cc1cccc(Cl)c1Nc1nc2cc(C(=O)NC3(c4cccc(C(F)(F)F)c4)CC3)c3c(c2[nH]1)CC(C)(C)O3` [Example-132, 2-((2-Chloro-6-methylphenyl)amino)-7,7-dimethyl-N-(1-(3-(trifluoromethyl)phenyl)cyclopropyl)-7,8-dihydro-1H-benzofuro[4,5-d]imidazole-5-carboxamide], for which the inhibition at 1 µM was 92.4%, the inhibition at 10 µM turned out to be 98% and the IC50 is below 50 nM.

Regarding `Cc1cccc(Cl)c1Nc1nc2cc(C(=O)Nc3ccc(F)c(C(F)(F)F)c3)c3c(c2[nH]1)CC(C)(C)O3` [Example-133, 2-((2-Chloro-6-methylphenyl)amino)-N-(4-fluoro-3-(trifluoromethyl)phenyl)-7,7-dimethyl-7,8-dihydro-1H-benzofuro[4,5-d]imidazole-5-carboxamide], the inhibition at 1 µM was 91.4%, the inhibition at 10 µM amounted to 96.5% and the IC50 is below 50 nM.

Turning to `CC1(C)Cc2c(c(C(=O)Nc3cc(C4CC4)ccc3F)cc3nc(Nc4c(F)cccc4Cl)[nH]c23)O1` [Example-134, 2-((2-Chloro-6-fluorophenyl)amino)-N-(5-cyclopropyl-2-fluorophenyl)-7,7-dimethyl-7,8-dihydro-1H-benzofuro[4,5-d]imidazole-5-carboxamide], the inhibition at 1 µM is 99.9%, the inhibition at 10 µM amounted to 99.4% and the IC50 is below 50 nM.

`Cc1cccc(Cl)c1Nc1nc2cc(C(=O)Nc3cc(C(F)F)ccc3F)c3c(c2[nH]1)CC(C)(C)O3` [Example-135, 2-((2-Chloro-6-methylphenyl)amino)-N-(5-(difluoromethyl)-2-fluorophenyl)-7,7-dimethyl-7,8-dihydro-1H-benzofuro[4,5-d]imidazole-5-carboxamide]: the inhibition at 1 µM came out at 97.5%, the inhibition at 10 µM was found to be 98.6% and the IC50 is below 50 nM.

Take `Cc1cccc(Cl)c1Nc1nc2cc(C(=O)Nc3cc(C4CC4)ccc3F)c3c(c2[nH]1)CC(C)(C)O3` [Example-136, 2-((2-Chloro-6-methylphenyl)amino)-N-(5-cyclopropyl-2-fluorophenyl)-7,7-dimethyl-7,8-dihydro-1H-benzofuro[4,5-d]imidazole-5-carboxamide]: the inhibition at 1 µM turned out to be 89.4%, the inhibition at 10 µM amounted to 96.9% and the IC50 was below 50 nM.

For `Cc1ccnc(Cl)c1Nc1nc2cc(C(=O)Nc3cccc(C(F)(F)F)c3)c3c(c2[nH]1)CC(C)(C)O3` [Example-137, 2-((2-Chloro-4-methylpyridin-3-yl)amino)-7,7-dimethyl-N-(3-(trifluoromethyl)phenyl)-7,8-dihydro-1H-benzofuro[4,5-d]imidazole-5-carboxamide], the inhibition at 1 µM is 95.3%, the inhibition at 10 µM was 100% and the IC50 is below 50 nM.
